Reference: patent US11332470B2, “CXCR4 inhibitors and uses thereof” (X4 Pharmaceuticals, Inc., priority 2016, dated 2022)
Where two headings read alike, the source gives them in different places.

Test: Mouse brain uptake assay (pharmacokinetics and brain penetration after IV administration)
Assay type: in vivo, Male CD1 Mice
Conditions: male, 3 mg/kg IV; for Kp / Kp uu: CD1, brain and plasma; for Kp / Kp uu / clearance / half-life: mouse; for Kp uu: read-out: Kp, uu (unbound brain/unbound plasma drug concentration ratio); for clearance / half-life: CD1, plasma; for clearance: read-out: Cl (Clearance) (converted); for half-life: read-out: t½ (half life) (converted); for AUC(0-t): CD1
Method: Example 15: Pharmacokinetics and Brain Penetration Experiment to Determine Brain and Plasma Concentrations of Compounds after IV Administration to Male CD1 Mice or Male SD Rats
The study design (9 animals) consisted of administrating the drug (IV: 3 mg/kg (5 mL/kg) via tail vein injection) and collecting samples at terminal bleeding for plasma and brain at 0.083, 0.5 and 1 h. The blood collection was performed as follows: the animal was restrained manually and approximately 150 μL blood/time point was collected into a dipotassium EDTA tube via retro orbital puncture under anesthesia with isoflurane. The blood sample was put on ice and centrifuged to obtain a plasma sample (2000 g, 5 min under 4° C.) within 15 minutes. The brain collection was performed as follows: a mid-line incision was made in the animal's scalp and the skin was retracted. Using small bone cutters and rongeurs, the skull overlying the brain was removed. The brain was removed using a spatula and the brain rinsed with cold saline. The brain was placed in screw-top tubes, and the tubes were stored at −70° C. until analysis. The IV dosing solution was prepared in 50 mM citrate buffer (pH 4.0) at 0.6 mg/mL.
Plasma Sample Preparation:
An aliquot of 30 μL sample was added to […] containing 50 ng/mL IS (Dexamethasone). The mixture was vortexed for 5 min and centrifuged at 14,000 rpm for 5 min. An aliquot of 5 μL supernatant was injected for LC-MS/MS analysis.
Brain Sample Preparation:
An aliquot of 30 μL brain homogenate (brain:PBS=1:3, w/v) sample was added to 150 μL IS in MeCN (Dexamethasone, 50 ng/mL). The mixture was vortexed for 5 min and centrifuged at 14,000 rpm for 5 min. An aliquot of 5 μL supernatant was injected for LC-MS/MS analysis.
The sample analysis was performed on LCMS/MS-003 (API4000, triple quadruple) under the following conditions: positive ion, ESI, MRM detection using dexamethasone as internal standard. HPLC conditions: mobile phase A: H2O (0.025% formic acid (FA) with 1 mM NH4OAc); mobile phase B: MeOH (0.025% FA with 1 mM NH4OAc) on Waters X-Bridge C18 (2.1×50 mm, 2.5 μm) column at 60° C.
A similar experiment was performed with 4 time points taken from 0-24 h.

[1] = 0-24 h, 4 time points, read-out: Kp (brain/plasma drug concentration ratio)
[2] = mouse brain, 0-24 h, 4 time points, read-out: AUClast (b) (area under the brain drug concentration-time curve)
[3] = mouse plasma, 0-24 h, 4 time points, read-out: AUClast (p) (area under the plasma drug concentration-time curve)
[4] = 0-1 h, 3 time points, read-out: Kp (brain/plasma drug concentration ratio, AUC last(b)/AUC last(p))
[5] = mouse brain, time zero to 1 hr, 3 time points, read-out: AUClast (b) (area under the brain drug concentration-time curve)
[6] = mouse plasma, time zero to 1 hr, 3 time points, read-out: AUClast (p) (area under the plasma drug concentration-time curve)

Row | Structure (SMILES) | Kp [1] | Kp uu (0-24 h, 4 time points) | clearance (0-24 h, 4 time points) [mL/min/kg] | half-life (0-24 h, 4 time points) [h] | AUC(0-t) [2] [ng·h/mL] | AUC(0-t) [3] [ng·h/mL] | Kp [4] | Kp uu (0-1 h, 3 time points) | clearance (0-1 h, 3 time points) [mL/min/kg] | half-life (0-1 h, 3 time points) [h] | AUC(0-t) [5] [ng·h/mL] | AUC(0-t) [6] [ng·h/mL]
1 | Cc1cccnc1C1CCCN1Cc1cn2c(N3CCN(C)C4(CC4)C3)cccc2n1 (stereo not drawn) [Compound I-29] | 0.53 | 0.07 | 66.8 | 4.29 | 394 | 737 | – | – | – | – | – | –
2 | CN1CCN(c2c(CN3CCCC3c3nccs3)nc3ccccn23)CC1 (stereo not drawn) [Compound I-70] | – | – | – | – | – | – | 1.41 | 1.99 | 25 | 3.64 | 736 | 523
3 | CN1CCN(c2cccc3[nH]c(CN4CCCC4c4ncccc4Cl)nc23)CC1 (stereo not drawn) [Compound I-26] | – | – | – | – | – | – | 1.86 | 1.11 | 140 | 0.269 | 742 | 400
4 | Cc1cccnc1C1CCCN1Cc1nc2cccc(N3CCN(C4CC4)CC3)c2[nH]1 (stereo not drawn) [Compound I-31] | 37.2 | 5.95 | 235 | 0.275 | 7260 | 195 | – | – | – | – | – | –

Other lines, results leading:

Row | Kp [1] | Kp uu (0-24 h, 4 time points) | clearance (0-24 h, 4 time points) [mL/min/kg] | half-life (0-24 h, 4 time points) [h] | AUC(0-t) [2] [ng·h/mL] | AUC(0-t) [3] [ng·h/mL] | Kp [4] | Kp uu (0-1 h, 3 time points) | clearance (0-1 h, 3 time points) [mL/min/kg] | half-life (0-1 h, 3 time points) [h] | AUC(0-t) [5] [ng·h/mL] | AUC(0-t) [6] [ng·h/mL] | Structure (SMILES)
5 | – | – | – | – | – | – | 1.21 | 0.48 | 25.5 | 3.87 | 518 | 427 | CN1CCN(c2c(CN3CCCC3c3ccccn3)nc3ccc(F)cn23)CC1 (stereo not drawn) [Compound I-63]
6 | – | – | – | – | – | – | 0.77 | 0.22 | 33.2 | 5.33 | 210 | 271 | CN1CCN(c2c(CN3CCCC3c3ccccn3)nc3ccccn23)CC1 (stereo not drawn) [Compound I-41]
